This is an account of results in US9579319B2 (Redx Pharma PLC, priority 2013, dated 2017).

The first experiment deals with Hedgehog signalling pathway. Put plainly: Gli-reporter NIH3T3 luciferase assay (Hedgehog pathway inhibition). To be noted: Gli-reporter NIH-3T3 cells, recombinant mouse sonic hedgehog, 24 hours, luminescence; read-out: Gli luc IC50. The class given is cell-based. Here is the method: In vitro biological evaluation of compounds of the invention was carried out using the procedure detailed below. The procedure provides activity data for the compounds of the invention against the Hedgehog signalling pathway. The activity is represented as IC50 values in Table 12 below.
The Gli-reporter NIH3T3 cell line (BPS Biosciences) was grown according to the suppliers recommendations. Briefly, cells were maintained in growth medium (DMEM supplemented with 10% calf serum, 1% Penicillin/Streptomycin, and 500 µg/mL of Geneticin) and grown at 37° C., 5% CO2. In order to passage cells they were first rinsed with phosphate buffered saline before the addition of 0.05% Trypsin/EDTA. Fresh growth media was added and the cells were transferred to a centrifuge tube, spun and resuspended at an appropriate cell density.
Gli-reporter NIH-3T3 cells were seeded at 20,000 cells/well into 96 well, poly-D-lysine coated white clear bottomed full area TC plates in growth media (without geneticin). Three wells were left with just media as cell free controls. Cells were then incubated for 24 hours at 37° C. in a 5% CO2.
Serial dilutions of the test compounds were prepared in 100% DMSO. 10 μl of compound or DMSO from each well was pipetted into a sterile, 0.5 ml deep well conical bottomed 96 well plate (intermediate plate). 190 μl of warmed assay media (Opti-MEM supplemented with 0.5% calf serum, 1% non-essential amino acids, 1 mM sodium pyruvate, 10 mM HEPES, 1% penicillin/Streptomycin) was then added to each well and mixed five times at 180 μl by electronic pipette to ensure homogeneity of the compound solution. This 1:20 dilution gives a top concentration of 50 μM in 5% DMSO, 95% assay media. 10 μl was pipetted from each well of the intermediate plate into a second deep well sterile plate. 490 μl of warm assay media was then added to each well and mixed five times at 300 μl. This gives a final top concentration of 1 μM in 0.1% DMSO.
After the 24 hour incubation, media was carefully removed by pipette and replaced with 45 μl of compound dilutions in triplicate. This was incubated for one hour at 37° C. in a 5% CO2. After an hour, 5 μl 10 μg/mL recombinant mouse sonic hedgehog (R&D Systems) was added to each well and the plates were incubated for a further 24 hours at 37° C., 5% CO2.
After 24 hours, plates were removed from the incubator and left to acclimatise to room temperature for 20 minutes. 50 μl of OneGLO assay reagent (Promega) was then added to each well and the plates gently shaken for a further 30 minutes. Plates were then read for luminescence on the EnVision plate reader (PerkinElmer).
Turning to “1-[4,5-dimethyl-6-(2-methylpyrazol-yl)pyridazin-3-yl]-N-methyl-N-[[2-(trifluoromethoxy)phenyl]methyl]piperidin-4-amine [Example 89]”, the IC50 (usually the point on the concentration scale where inhibition reaches its midpoint) was over 200 nM.

Staying with this experiment, now noted: NIH3T3; Gli-reporter NIH-3T3 cells, recombinant mouse sonic hedgehog, 24 hours, luminescence; read-out: Category (Hedgehog pathway inhibition activity, IC50).
Regarding `Cc1ccccc1CN(C)C1CCN(c2nnc(-c3ccnn3C)c3ccccc23)CC1` [Example 30, N-methyl-1-[4-(2-methylpyrazol-3-yl)phthalazin-1-yl]-N-(o-tolylmethyl)piperidin-4-amine], the 50% inhibitory concentration (IC50) was under 10 nM.

For the compound `COc1cccc(NC(=O)NC2CCN(c3nnc(-c4ccnn4C)c4ccccc34)CC2)c1` [Example 24, 1-(3-methoxyphenyl)-3-[1-[4-(2-methylpyrazol-3-yl)phthalazin-1-yl]-4-piperidyl]urea], the half-inhibitory concentration (IC50) is under 10 nM.

For the compound `Cn1nccc1-c1nnc(N2CCC(NCc3cccc(OC(F)(F)F)c3)CC2)c2ccccc12` [Example 34, 1-[4-(2-methylpyrazol-3-yl)phthalazin-1-yl]-N-[[3-(trifluoromethoxy)phenyl]methyl]piperidin-4-amine], the half-maximal inhibitory concentration (IC50) lay within 10 to 200 nM.

For `CN(Cc1ccc(F)cc1C(F)(F)F)C1CCCN(c2nnc(-c3ccnn3C)c3ccccc23)C1` (stereo not shown) [Example 54, N-[[4-fluoro-2-(trifluoromethyl)phenyl]methyl]-N-methyl-1-[4-(2-methylpyrazol-3-yl)phthalazin-1-yl]piperidin-3-amine], the IC50 lay within 200 to 2000 nM.

`Cn1nccc1-c1nnc(N2CCC(N(Cc3ccc(F)cc3C(F)(F)F)C(=O)C(F)(F)F)CC2)c2ccccc12` [Example 56, 2,2,2-trifluoro-N-[[4-fluoro-2-(trifluoromethyl)phenyl]methyl]-N-[1-[4-(2-methylpyrazol-3-yl)phthalazin-1-yl]-4-piperidyl]acetamide]: the IC50 was in the range of 10 to 200 nM.

Take `COc1ccc(NC(=O)NC2CCN(c3nnc(-c4ccnn4C)c4ccccc34)CC2)cc1` [Example 45, 1-(4-methoxyphenyl)-3-[1-[4-(2-methylpyrazol-3-yl)phthalazin-1-yl]-4-piperidyl]urea]: the IC50 lay in the range of 10 to 200 nM.

With `COc1nnc(N2CCC(NCc3ccc(F)cc3C(F)(F)F)CC2)c2ccccc12` [Example 58, N-[[4-fluoro-2-(trifluoromethyl)phenyl]methyl]-1-(4-methoxyphthalazin-1-yl)piperidin-4-amine], the half-inhibitory concentration (IC50) is 200 to 2000 nM.

Turning to `Cn1nccc1-c1nnc(N2CCC(NC(=O)Nc3ccc(F)cc3C(F)(F)F)CC2)c2ccccc12` [Example 23, 1-[4-fluoro-2-(trifluoromethyl)phenyl]-3-[1-[4-(2-methylpyrazol-3-yl)phthalazin-1-yl]-4-piperidyl]urea], the IC50 is under 10 nM.

With `Cn1nccc1-c1nnc(N2CCC(NCc3ccc(F)nc3F)CC2)c2ccccc12` [Example 76, N-[(2,6-difluoro-3-pyridyl)methyl]-1-[4-(2-methylpyrazol-3-yl)phthalazin-1-yl]piperidin-4-amine], the IC50 was in the range of 10 to 200 nM.

On to `CN(Cc1cccc(F)c1)C1CCN(c2nnc(-c3ccnn3C)c3ccccc23)CC1` [Example 65, (3-fluorophenyl)methyl-methyl-[1-[4-(2-methylpyrazol-3-yl)phthalazin-1-yl]-4-piperidyl]ammonium], for which the half-maximal inhibitory concentration (IC50) was in the range of 10 to 200 nM.

Still in this experiment, the particulars now being: NIH3T3; Gli-reporter NIH-3T3 cells, recombinant mouse sonic hedgehog, 24 hours, luminescence; read-out: Gli Luc nM (IC50).
As for `Cn1nccc1-c1nnc(N2CCC(NC(=O)Nc3ccc(F)cc3C(F)(F)F)CC2)c2ccccc12` [Example 23, 1-[4-fluoro-2-(trifluoromethyl)phenyl]-3-[1-[4-(2-methylpyrazol-3-yl)phthalazin-1-yl]-4-piperidyl]urea], the IC50 amounted to 0.66 nM.

The same experiment, now with this note: NIH3T3; Gli-reporter NIH-3T3 cells, recombinant mouse sonic hedgehog, 24 hours, luminescence; read-out: Gli luc IC50.
For the compound `Cc1c(-c2ccnn2C)nnc(N2CCC(N(C)C(=O)Nc3cnncc3C(F)(F)F)CC2)c1C` [Example 107, 1-[1-[4,5-dimethyl-6-(2-methylpyrazol-3-yl)pyridazin-3-yl]-4-piperidyl]-1-methyl-3-[5-(trifluoromethyl)pyridazin-4-yl]urea], the IC50 was over 200 nM.

For the compound `CN(C(=O)Nc1ccc(F)cc1F)C1CCN(c2nnc(-c3ccnn3C)c3ccncc23)CC1` [Example 111, 3-(2,4-difluorophenyl)-1-methyl-1-[1-[1-(2-methylpyrazol-3-yl)pyrido[3,4-d]pyridazin-4-yl]-4-piperidyl]urea], the IC50 lay within 10 to 200 nM.

In the case of `COC(=O)c1ccc(CNC2CCN(c3nnc(-c4ccnn4C)c4ccccc34)CC2)nc1` [Example 166, methyl 6-[[[1-[4-(2-methylpyrazol-3-yl)phthalazin-1-yl]-4-piperidyl]amino]methyl]pyridine-3-carboxylate], the IC50 was over 200 nM.

As for `Cc1c(-c2ccnn2C)nnc(N2CCC(NC(=O)NC3(C(F)(F)F)CC3)CC2)c1C` [Example 108, 1-[1-[4,5-dimethyl-6-(2-methylpyrazol-3-yl)pyridazin-3-yl]-4-piperidyl]-3-[1-(trifluoromethyl)cyclopropyl]urea], the IC50 was in the range of 10 to 200 nM.

In the case of `Cn1nccc1-c1nnc(N2CCC(NS(=O)(=O)c3ccc(F)cc3F)CC2)c2c1CCC2` [Example 141, 2,4-difluoro-N-[1-[1-(2-methylpyrazol-3-yl)-6,7-dihydro-5H-cyclopenta[d]pyridazin-4-yl]-4-piperidyl]benzenesulfonamide], the IC50 is 10 to 200 nM.

Consider `CN(Cc1ccc(F)cc1C(F)(F)F)C1CCN(c2nnc(-c3ccnn3C)c3cccnc23)CC1` [Example 135, N-[[4-fluoro-2-(trifluoromethyl)phenyl]methyl]-N-methyl-1-[5-(2-methylpyrazol-3-yl)pyrido[2,3-d]pyridazin-8-yl]piperidin-4-amine], for which the IC50 lay in the range of 10 to 200 nM.

Take `Cc1c(-c2ccnn2C)nnc(N2CCC(N(C)C(=O)Nc3ccc(F)cc3)CC2)c1C` [Example 113, 1-[1-[4,5-dimethyl-6-(2-methylpyrazol-3-yl)pyridazin-3-yl]-4-piperidyl]-3-(4-fluorophenyl)-1-methyl-urea]: the IC50 was over 200 nM.

For `Cn1nccc1-c1nnc(N2CCC(NS(=O)(=O)c3ccc(F)cc3C(F)(F)F)CC2)c2c1CCC2` [Example 159, 4-fluoro-N-[1-[1-(2-methylpyrazol-3-yl)-6,7-dihydro-5H-cyclopenta[d]pyridazin-4-yl]-4-piperidyl]-2-(trifluoromethyl)benzenesulfonamide], the IC50 was under 10 nM.

On to `Cc1nc(C(F)(F)F)c(CN(C)C2CCN(c3nnc(-c4ccnn4C)c4ccccc34)CC2)s1` [Example 96, N-methyl-1-[4-(2-methylpyrazol-3-yl)phthalazin-1-yl]-N-[[2-methyl-4-(trifluoromethyl)thiazol-5-yl]methyl]piperidin-4-amine], for which the IC50 was under 10 nM.

In the case of `Cc1c(-c2ccncc2)nnc(N2CCC(NCc3ccc(F)cc3C(F)(F)F)CC2)c1C` [Example 123, 1-[4,5-dimethyl-6-(4-pyridyl)pyridazin-3-yl]-N-[[4-fluoro-2-(trifluoromethyl)phenyl]methyl]piperidin-4-amine], the half-inhibitory concentration (IC50) is 10 to 200 nM.

Turning to `CN(Cc1ccc(F)cc1C(F)(F)F)C1CCN(c2nnc(-c3ccnn3C)c3ncccc23)CC1` [Example 130, N-[[4-fluoro-2-(trifluoromethyl)phenyl]methyl]-N-methyl-1-[8-(2-methylpyrazol-3-yl)pyrido[2,3-d]pyridazin-5-yl]piperidin-4-amine], the IC50 was over 200 nM.

`CN(C1CCN(c2nnc(-c3ccnn3C)c3ccncc23)CC1)S(=O)(=O)c1ccc(F)cc1F` [Example 102, 2,4-difluoro-N-methyl-N-[1-[1-(2-methylpyrazol-3-yl)pyrido[3,4-d]pyridazin-4-yl]-4-piperidyl]benzenesulfonamide]: the 50% inhibitory concentration (IC50) lay in the range of 10 to 200 nM.

Turning to `CN(Cc1cnccc1C(F)(F)F)C1CCN(c2nnc(-c3ccnn3C)c3ccccc23)CC1` [Example 154, N-methyl-1-[4-(2-methylpyrazol-3-yl)phthalazin-1-yl]-N-[[4-(trifluoromethyl)-3-pyridyl]methyl]piperidin-4-amine], the IC50 is under 10 nM.

Take `CN(Cc1ccccc1OC(F)(F)F)C1CCN(c2nnc(-c3ccnn3C)c3ccccc23)CC1` [Example 162, N-methyl-1-[4-(2-methylpyrazol-3-yl)phthalazin-1-yl]-N-[[2-(trifluoromethoxy)phenyl]methyl]piperidin-4-amine]: the half-maximal inhibitory concentration (IC50) is under 10 nM.

Consider `Cn1nccc1-c1nnc(N2CCC(N(Cc3ccc(F)cc3C(F)(F)F)C3CC3)CC2)c2ccccc12` [Example 94, N-cyclopropyl-N-[[4-fluoro-2-(trifluoromethyl)phenyl]methyl]-1-[4-(2-methylpyrazol-3-yl)phthalazin-1-yl]piperidin-4-amine], for which the half-inhibitory concentration (IC50) was over 200 nM.

Consider `CN(Cc1ccncn1)C1CCN(c2nnc(-c3ccnn3C)c3ccccc23)CC1` [Example 86, N-methyl-1-[4-(2-methylpyrazol-3-yl)phthalazin-1-yl]-N-(pyrimidin-4-ylmethyl)piperidin-4-amine], for which the IC50 was over 200 nM.
